The target of data set [1] is T1, Thyroid Receptor TRβ (Homo sapiens, UniProt P10828).
T1 construct: expressed in transfected cells; host or cells: HEK-293
T1 sequence (P10828 1-461): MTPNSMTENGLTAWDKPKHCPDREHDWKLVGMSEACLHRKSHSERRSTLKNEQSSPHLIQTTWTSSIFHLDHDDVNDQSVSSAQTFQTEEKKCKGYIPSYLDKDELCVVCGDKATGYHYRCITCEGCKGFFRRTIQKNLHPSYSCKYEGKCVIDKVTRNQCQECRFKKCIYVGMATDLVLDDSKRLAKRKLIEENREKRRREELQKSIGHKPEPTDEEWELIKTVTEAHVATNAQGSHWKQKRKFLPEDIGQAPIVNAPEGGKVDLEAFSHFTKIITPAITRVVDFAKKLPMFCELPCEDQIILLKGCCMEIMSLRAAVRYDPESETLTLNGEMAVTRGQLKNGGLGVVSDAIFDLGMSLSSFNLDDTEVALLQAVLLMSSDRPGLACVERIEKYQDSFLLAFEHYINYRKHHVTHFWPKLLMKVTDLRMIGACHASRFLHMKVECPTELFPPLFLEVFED
Nature of the data set: Thyroid Receptor TRβ Agonist Assay (luciferase reporter gene, co-transfected HEK-293 cells). It is filed as cell-based. The settings on record: TRβ plasmid + thyroid hormone response element luciferase reporter in HEK-293 cells; 24 hours; maximum concentration 10 μM. The procedure:
B: Thyroid Receptor TRβ Agonist Assay
(2) The residual poly-D-lysine is removed. On the 96-well plate, HEK-293 cells are plated at a density of 4.0×10^4 cells/well in DMEM medium containing 10% FBS. The cells are cultured at 37° C. overnight.
(1) The culture medium is removed 2 hours before transfection. 100 μl of DMEM culture medium containing 10% FBS treated by activated carbon is added to each well, and incubated at 37° C. for 2 hours.
3. For each reaction system, 50 ng thyroid receptor (TRβ) plasmid DNA and 50 ng luciferase reporter gene plasmid DNA of thyroid hormone response element are added. Mixing it completely by gentle pipeting.
4. 0.2 μl of transfection reagent X-tremeGENE HP is added to the diluted co-transfected DNA mixture. Mixing it completely by gentle pipeting.
(3) 10 μl of the complex is added to each well in a 96 well plate. Gently shaking the culturing plate to evenly distribute the complex.
(4) The culture is incubated at 37° C. for 24 hours.
(1) Preparation of compound diluent: for each compound, half-log dilutions of each test compound is prepared using DMEM medium containing 10% charcoal stripped FBS (containing 0.1% DMSO), with a maximum concentration of 10 μM of the test compound.
(2) Removing the culture medium and adding the formulated compound diluent (the final DMSO concentration is 0.1%).
(3) For blank control, DMEM medium containing 10% charcoal stripped FBS (containing 0.1% DMSO) is added.
(4) Incubating at 37° C. for 24 hours.
(1) Removing the culture medium, adding 40 μl phosphate (PBS) buffer to each well.
(2) Adding 40 μl Bright-Glo reagent to each well and vortexing for 30 seconds, followed by incubation in dark for 2 min.
(3) Transferring 70 μl cell lysate from each well into a white polystyrene 96-well plate.
(4) Detecting the Luciferase signal intensity by Envision.
In general terms: Reporter assays use an easily measured gene product as a stand-in for the process of interest.

The subject of data set [2] is C3H mice. Put plainly: Mouse experiment: hair growth after topical administration. It is filed as in vivo. The following applies: for day of topical administration on which the skin became black / day on which hair growth was observed: 20 μl/mouse topical twice/day. The procedure: A. Mouse Experiment: TMI-105795 is Used as Test Compound in the Experiment
The tested compound (TMI-105795) is sub-packaged into dose volume and kept at −20° C. before use. All tested compounds (including solvents) are labeled as TDM-001-1, TDM-001-2, TDM-001-3 and TDM-001-4.
Female C3H mice (35-39 days after birth at arrival) were obtained from Beijing Vital River Laboratory Animal Technology Co., Ltd. The mice were selected for inclusion based upon acceptable clinical condition and body weight. Animals were housed randomly 5 mice per cage before grouping. All mice were kept at least one week in acclimation in the animal facility prior to any procedures. Animal identification number was labeled on the tail and cage tag respectively.
The test compound is TMI-105795 (solvent is polyethylene glycol/ethanol (30/70)), it is sub-packaged into dose volume and kept in −20° C. before use. It was topically administered together with solvent twice every day at 9:30 am and 4:00 pm.
Hair growth grade, peripheral hair growth, scaling, erythema will be scored on Monday, Wednesday and Friday from the beginning on the Day 1 to the termination of the experiment.
All experimental mice were carefully dipped with the hair on the back of the rear leg with shaver. Care must be taken to avoid any irritation to the skin on the back of mouse. Skin color on the back was confirmed again. All mice must show pink skin, any mice that show signs of skin abrasion were excluded from the experiment. Mice were randomly divided into 5 groups and housed individually.
Body weight of each mouse is recorded before administration every morning. 20 μl corresponding solution is aspirated by pipette and applied to shaving area on the back of the mouse, and then the drug solution is uniformly applied to the back between rear legs with tips, about a region with a diameter of 1 cm. It is ensured that the administered region is the same one every day, and the mouse is put into the case after drying of liquid.
All mice are scored on Monday Wednesday and Friday each week from the beginning on the Day 1 to the termination of the study, using the following scoring guidelines:
a. Hair Growth Grade (Administration Area):
0=No color change, or hair growth on the skin
1=Skin color changes uniformly over the administration area from pink to gray/black with no visible hair growth;
2=Appearance of short and sparse hair growth;
3=Full thick hair growth similar to the surrounding normal hair coat.
b. Peripheral Hair Growth (Defined as Hair Growth that is in the Dipped Area, but not in the Administration Area):
0=No color change, or hair growth on the skin;
1=Skin color changes to gray/black with no visible hair growth;
2=Peripheral sparse hair growth;
3=Peripheral thick hair growth.

Where [3] appears, read: all treatment groups, 3 weeks topical administration.

pEC50: −log10 of the molar value.

As to `O=C(NO)C(=O)Nc1cc(Cl)c(Oc2ccc(O)c(CN3CCc4ccccc4C3)c2)c(Cl)c1` [TMI-105962, N1-(3,5-dichloro-4-(3-(3,4-dihydroisoquinolin-2(1H)-methyl)-4-hydroxyphenoxy)phenyl)-N2-oxalyl hydroxylamine], the pEC50 – broadly, the negative decadic logarithm of the EC50, by convention in mol/L – in data set [1] was 5.43.

In the case of `O=C(NO)C(=O)Nc1cc(Cl)c(Oc2ccc(O)c(Cc3ccc(Cl)c(Cl)c3)c2)c(Cl)c1` [TMI-105905, N1-(3,5-dichloro-4-(3-(3,4-dichlorobenzyl)-4-hydroxyphenoxy)phenyl)-N2-oxalyl hydroxylamine], the negative-log EC50 (pEC50) in data set [1] was 6.40.

For `CN1CCN(Cc2cc(Oc3c(Cl)cc(NC(=O)C(=O)NO)cc3Cl)ccc2O)CC1` [TMI-105957, N1-(3,5-dichloro-4-(4-hydroxy-3-(4-methylpiperazine-1-methyl)phenoxy)phenyl)-N2-oxalyl hydroxylamine], in data set [1], the pEC50 was 5.06.

Take `O=C(NO)C(=O)Nc1cc(Cl)c(Oc2ccc(O)c(CN3CCOCC3)c2)c(Cl)c1` [TMI-105906, N1-(3,5-dichloro-4-(4-hydroxy-3-(morpholinomethyl)phenoxy)phenyl)-N2-oxalyl hydroxylamine]: the negative logarithm of the EC50 (pEC50) in data set [1] was 6.03.

Turning to `O=C(NO)C(=O)Nc1cc(Cl)c(Oc2ccc(O)c(CN3CCCC3)c2)c(Cl)c1` [TMI-105958, N1-(3,5-dichloro-4-(4-hydroxy-3-(methylpyrrolidin-1-methyl)phenoxy)phenyl)-N2-oxalyl hydroxylamine], the pEC50 in data set [1] is 5.01.

With `O=C1CN(Cc2cc(Oc3c(Cl)cc(NC(=O)C(=O)NO)cc3Cl)ccc2O)CCN1` [TMI-105963], the pEC50 in data set [1] is 5.02.

As for `O=C(NO)C(=O)Nc1cc(Cl)c(Oc2ccc(O)c(CN3CCC(Cc4ccccc4)CC3)c2)c(Cl)c1` [TMI-105959], the negative logarithm of the EC50 (pEC50) in data set [1] was 6.21.

`O=C(NO)C(=O)Nc1cc(Cl)c(Oc2ccc(O)c(Cc3cccc(F)c3)c2)c(Cl)c1` [TMI-105965]: the negative logarithm of the EC50 (pEC50) in data set [1] is 7.02.

Consider `O=C(NO)C(=O)Nc1cc(Cl)c(Oc2ccc(O)c(CN3CCC(O)CC3)c2)c(Cl)c1` [TMI-105956], for which the negative-log EC50 (pEC50) in data set [1] was 5.19.

For the compound `O=C(NO)C(=O)Nc1cc(Cl)c(Oc2ccc(O)c(Cc3ccccc3F)c2)c(Cl)c1` [TMI-105966], the negative logarithm of the EC50 (pEC50) in data set [1] is 7.21.

On to `O=C(NO)C(=O)Nc1cc(Cl)c(Oc2ccc(O)c(Cc3ccc(F)cc3)c2)c(Cl)c1` [TMI-105795, N1-(3,5-dichloro-4-(3-(4-fluorobenzyl)-4-hydroxyphenoxy)phenyl)-N2-oxalyl hydroxylamine], for which, in data set [2] (TDM-001-2 group, 0.005% (w/v)), the “day of topical administration on which the skin became black” value (shortened to “day of topical administration”) is 12 days and the “day on which hair growth was observed” value is 16 days. Further, in data set [2] (TDM-001-3 group, 0.01% (w/v)), the “day of topical administration” value was determined as 2 days and the “day on which hair growth was observed” value amounted to 6 days. Also, in data set [2] (TDM-001-4 group, 0.05% (w/v)), the “day of topical administration” value came to 2 days and the “day on which hair growth was observed” value amounted to 8 days. The “body weight change during administration” value in data set [2] (all groups, 3 weeks topical administration) is on record as “would not induce the loss of animal body weight”. In data set [2] (setting [3]), the “erythema of the skin” value is “not observed” and the “scaling of the skin” value is given as “not observed”. Also, in data set [2] (female C3H mice, topical, twice/day, 5 days/week for 3 weeks, every dosing amount (0.005%, 0.01%, 0.05% w/v)), the “promoting hair growth compared with solvent group” value is given as “positive result in promoting hair growth”. In data set [2] (female C3H mice, topical, 0.005%, 0.01%, 0.05% (w/v)), the “dose dependence of hair growth effect” value is “dose dependent effect is observed”. The pEC50 in data set [1] is 6.75.

For the compound `Cc1ccc(Cc2cc(Oc3c(Cl)cc(NC(=O)C(=O)NO)cc3Cl)ccc2O)cc1` [TMI-105903, N1-(3,5-dichloro-4-(3-(4-methylbenzyl)-4-hydroxyphenoxy)phenyl)-N2-oxalyl hydroxylamine], the negative-log EC50 (pEC50) in data set [1] is 6.87.

On to `CS(=O)(=O)c1ccc(Cc2cc(Oc3c(Cl)cc(NC(=O)C(=O)NO)cc3Cl)ccc2O)cc1` [TMI-105902, N1-(3,5-dichloro-4-(3-(4-methylsulphonylbenzyl)-4-hydroxyphenoxy)phenyl)-N2-oxalyl hydroxylamine], for which the pEC50 in data set [1] is 6.60.

Consider `O=C(NO)C(=O)Nc1cc(Cl)c(Oc2ccc(O)c(CN3Cc4ccccc4C3)c2)c(Cl)c1` [TMI-105961, N1-(3,5-dichloro-4-(4-hydroxy-3-(isoindolin-2-methyl)phenoxy)phenyl)-N2-oxalyl hydroxylamine], for which the pEC50 in data set [1] is 5.03.

The values above are taken from patent publication US9920022B2, “Small molecule compound and synthesizing method and uses thereof” (TECHNODERMA MEDICINES PTE LTD., priority 2014, dated 2018).
